In this test the target is T1, TAAR1 (Mus musculus, UniProt Q923Y8).
T1 construct: expressed in transfected cells; host or cells: HEK293 cells (ATCC # CRL-1573), stably transfected with pIRESneo2 expression plasmid; membranes prepared
Nature of the test: Radioligand binding ([3H]-rac-2-(1,2,3,4-tetrahydro-1-naphthyl)-2-imidazoline) on membranes of HEK293 cells stably expressing TAAR1. Particulars: for Ki: mouse TAAR1, radioligand at 60 nM, 4° C., 30 min incubation. As for the experimental part:
Construction of TAAR Expression Plasmids and Stably Transfected Cell Lines
For the construction of expression plasmids the coding sequences of human, rat and mouse TAAR 1 were amplified from genomic DNA essentially as described by Lindemann et al.. The Expand High Fidelity PCR System (Roche Diagnostics) was used with 1.5 mM Mg^2+ and purified PCR products were cloned into pCR2.1-TOPO cloning vector (Invitrogen) following the instructions of the manufacturer. PCR products were subcloned into the pIRESneo2 vector (BD Clontech, Palo Alto, Calif.), and expression vectors were sequence verified before introduction in cell lines.
HEK293 cells (ATCC # CRL-1573) were cultured essentially as described Lindemann et al. (2005). For the generation of stably transfected cell lines HEK293 cells were transfected with the pIRESneo2 expression plasmids containing the TAAR coding sequences (described above) with Lipofectamine 2000 (Invitrogen) according to the instructions of the manufacturer, and 24 hrs post transfection the culture medium was supplemented with 1 mg/ml G418 (Sigma, Buchs, Switzerland). After a culture period of about 10 d clones were isolated, expanded and tested for responsiveness to trace amines (all compounds purchased from Sigma) with the cAMP Biotrak Enzyme immunoassay (EIA) System (Amersham) following the non-acetylation EIA procedure provided by the manufacturer.
Membrane Preparation and Radioligand Binding
Cells at confluence were rinsed with ice-cold phosphate buffered saline without Ca^2+ and Mg^2+ containing 10 mM EDTA and pelleted by centrifugation at 1000 rpm for 5 min at 4° C. The pellet was then washed twice with ice-cold phosphate buffered saline and cell pellet was frozen immediately by immersion in liquid nitrogen and stored until use at −80° C. Cell pellet was then suspended in 20 ml HEPES-NaOH (20 mM), pH 7.4 containing 10 mM EDTA, and homogenized with a Polytron (PT 3000, Kinematica) at 10,000 rpm for 10 s. The homogenate was centrifuged at 48,000×g for 30 min at 4° C. and the pellet resuspended in 20 ml HEPES-NaOH (20 mM), pH 7.4 containing 0.1 mM EDTA (buffer A), and homogenized with a Polytron at 10,000 rpm for 10 s. The homogenate was then centrifuged at 48,000×g for 30 min at 4° C. and the pellet resuspended in 20 ml buffer A, and homogenized with a Polytron at 10,000 rpm for 10 s. Protein concentration was determined by the method of Pierce (Rockford, Ill.). The homogenate was then centrifuged at 48,000×g for 10 min at 4° C., resuspended in HEPES-NaOH (20 mM), pH 7.0 including MgCl2 (10 mM) and […] homogenized with a Polytron at 10,000 rpm for 10 s.
Binding assay was performed at 4° C. in a final volume of 1 ml, and with an incubation time of 30 min. The radioligand [^3H]-rac-2-(1,2,3,4-tetrahydro-1-naphthyl)-2-imidazoline was used at a concentration equal to the calculated Kd value of 60 nM to give a bound at around 0.1% of the total added radioligand concentration, and a specific binding which represented approximately 70-80% of the total binding. Non-specific binding was defined as the amount of [^3H]-rac-2-(1,2,3,4-tetrahydro-1-naphthyl)-2-imidazoline bound in the presence of the appropriate unlabelled ligand (10 μM). Competing ligands were tested in a wide range of concentrations (10 pM-30 μM). […] Each experiment was performed in duplicate. All incubations were terminated by rapid filtration through UniFilter-96 plates (Packard Instrument Company) and glass filter GF/C, pre-soaked for at least 2 h in polyethylenimine 0.3%, and using a Filtermate 96 Cell Harvester (Packard Instrument Company). The tubes and filters were then washed 3 times with 1 ml aliquots of cold buffer B. Filters were not dried and soaked in Ultima gold (45 μl/well, Packard Instrument Company) and bound radioactivity was counted by a TopCount Microplate Scintillation Counter (Packard Instrument Company).

By Kd is commonly meant a measure of binding affinity in units of concentration. A word on the Ki: it is the equilibrium dissociation constant of an inhibitor or competing ligand from its target.

T1 sequence (Q923Y8 whole entry): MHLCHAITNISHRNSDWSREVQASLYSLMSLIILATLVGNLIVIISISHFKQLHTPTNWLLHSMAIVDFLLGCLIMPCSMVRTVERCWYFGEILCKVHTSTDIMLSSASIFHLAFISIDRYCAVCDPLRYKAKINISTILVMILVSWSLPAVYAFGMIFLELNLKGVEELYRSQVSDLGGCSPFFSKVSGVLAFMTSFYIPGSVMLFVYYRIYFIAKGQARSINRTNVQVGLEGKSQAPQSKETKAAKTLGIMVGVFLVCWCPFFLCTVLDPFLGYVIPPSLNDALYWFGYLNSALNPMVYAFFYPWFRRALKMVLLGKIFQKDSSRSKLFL

For the compound `c1ccc2c(c1)CCCC2C1=NCCN1` (racemic) [[^3H]-rac-2-(1,2,3,4-tetrahydro-1-naphthyl)-2-imidazoline, reference compound], the dissociation constant (Kd) (TAAR1 binding assay, species not given, read-out: calculated Kd value of the radioligand) was 60 nM.

For the compound `CN1CCN(c2ccc(C(=O)NCCc3ccccc3)cn2)CC1` [A, 6-(4-methyl-piperazin-1-yl)-N-phenethyl-nicotinamide, reference compound], the affinity, expressed as Ki, was 0.044 µM. On the same count and under the same terms, to `CN1CCN(c2ccc(C(=O)NCc3ccccc3)cn2)CC1` [Example 1, N-Benzyl-6-(4-methyl-piperazin-1-yl)-nicotinamide] belongs 0.071 µM; to `CN1CCN(c2ccc(C(=O)NCc3ccc(Cl)cc3)cn2)CC1` [Example 2], 0.013 µM. Still for that read-out and setting: to `CN1CCN(c2ccc(C(=O)NCCc3ccc(Cl)cc3)cn2)CC1` [Example 6, N-[2-(4-Chloro-phenyl)-ethyl]-6-(4-methyl-piperazin-1-yl)-nicotinamide] belongs 0.005 µM; to `CN1CCN(c2ccc(C(=O)NCCc3cccc(Cl)c3)cn2)CC1` [Example 7, N-[2-(3-Chloro-phenyl)-ethyl]-6-(4-methyl-piperazin-1-yl)-nicotinamide], 0.027 µM. `CN1CCN(c2ccc(C(=O)NCCc3cccc(C(F)(F)F)c3)cn2)CC1` [Example 8, 6-(4-Methyl-piperazin-1-yl)-N-[2-(3-trifluoromethyl-phenyl)-ethyl]-nicotinamide] displayed a Ki of 0.01 µM. This Ki is about 2.7-fold lower than that of the compound before. Still for that read-out and setting: the figure for `COc1ccc(CCNC(=O)c2ccc(N3CCN(C)CC3)nc2)cc1` [Example 9, N-[2-(4-Methoxy-phenyl)-ethyl]-6-(4-methyl-piperazin-1-yl)-nicotinamide] is 0.091 µM; for `COc1cccc(CCNC(=O)c2ccc(N3CCN(C)CC3)nc2)c1` [Example 10, N-[2-(3-Methoxy-phenyl)-ethyl]-6-(4-methyl-piperazin-1-yl)-nicotinamide] it is 0.049 µM.

Compound `CN1CCN(c2ccc(C(=O)NCCc3ccc4c(c3)OCO4)cn2)CC1` [Example 11, N-(2-Benzo[1,3]dioxol-5-yl-ethyl)-6-(4-methyl-piperazin-1-yl)-nicotinamide] showed a Ki of 0.043 µM. The same measure, in the same setting: the figure for `CN1CCN(c2ccc(C(=O)NCCc3ccc(-c4ccccc4)cc3)cn2)CC1` [Example 12, N-(2-Biphenyl-4-yl-ethyl)-6-(4-methyl-piperazin-1-yl)-nicotinamide] is 0.028 µM; for `CN1CCN(c2ccc(C(=O)NCCc3ccc(Oc4ccccc4)cc3)cn2)CC1` [Example 13, 6-(4-Methyl-piperazin-1-yl)-N-[2-(4-phenoxy-phenyl)-ethyl]-nicotinamide] it is 0.004 µM; for `CN1CCN(c2ccc(C(=O)NCCc3cccc(Oc4ccccc4)c3)cn2)CC1` [Example 14, 6-(4-Methyl-piperazin-1-yl)-N-[2-(3-phenoxy-phenyl)-ethyl]-nicotinamide] it is 0.068 µM.

As to `CN1CCN(c2ccc(C(=O)NCCc3ccc(OCc4ccccc4)cc3)cn2)CC1` [Example 15, N-[2-(4-Benzyloxy-phenyl)-ethyl]-6-(4-methyl-piperazin-1-yl)-nicotinamide], the Ki is 0.006 µM. On the same count and under the same terms, the figure for `CN1CCN(c2ccc(C(=O)NCCc3cn(C)c4ccccc34)cn2)CC1` [Example 18, N-[2-(1-Methyl-1H-indol-3-yl)-ethyl]-6-(4-methyl-piperazin-1-yl)-nicotinamide] is 0.023 µM. In the case of `CN1CCC(Oc2ccc(C(=O)NCCc3ccc(Oc4ccccc4)cc3)cn2)CC1` [Example 24, 6-(1-Methyl-piperidin-4-yloxy)-N-[2-(4-phenoxy-phenyl)-ethyl]-nicotinamide], the Ki came to 0.019 µM. The Ki values of the last two compounds are within 1.5-fold of each other.

In turn, `O=C(NCCc1ccc(Cl)cc1)c1ccc(N2CCNCC2)nc1` [Example 26, N-[2-(4-Chloro-phenyl)-ethyl]-6-piperazin-1-yl-nicotinamide] registered a Ki of 0.081 µM. The same measure, in the same setting: the figure for `O=C(NCCc1ccc(Oc2ccccc2)cc1)c1ccc(N2CCNCC2)nc1` [Example 28, N-[2-(4-Phenoxy-phenyl)-ethyl]-6-piperazin-1-yl-nicotinamide] is 0.016 µM; for `O=C(NCCc1cccc(Oc2ccccc2)c1)c1ccc(N2CCNCC2)nc1` [Example 29, N-[2-(3-Phenoxy-phenyl)-ethyl]-6-piperazin-1-yl-nicotinamide] it is 0.071 µM; for `O=C(NCCc1ccc(OCc2ccccc2)cc1)c1ccc(N2CCNCC2)nc1` [Example 30, N-[2-(4-Benzyloxy-phenyl)-ethyl]-6-piperazin-1-yl-nicotinamide] it is 0.028 µM. For the compound `CN1CCN(c2ncc(C(=O)NCCc3ccc(Cl)cc3)cc2Br)CC1` [Example 31, 5-Bromo-N-[2-(4-chloro-phenyl)-ethyl]-6-(4-methyl-piperazin-1-yl)-nicotinamide], the affinity, expressed as Ki, was 0.006 µM.

For the compound `CN1CCN(c2ncc(C(=O)NCCc3ccc(Oc4ccccc4)cc3)cc2Br)CC1` [Example 32, 5-Bromo-6-(4-methyl-piperazin-1-yl)-N-[2-(4-phenoxy-phenyl)-ethyl]-nicotinamide], the Ki was determined as 0.005 µM. `O=C(NCCc1ccc(Cl)cc1)c1cnc(N2CCNCC2)c(Br)c1` [Example 33, 5-Bromo-N-[2-(4-chloro-phenyl)-ethyl]-6-piperazin-1-yl-nicotinamide] showed a Ki of 0.019 µM. The same measure, in the same setting: to `O=C(NCCc1ccc(Oc2ccccc2)cc1)c1cnc(N2CCNCC2)c(Br)c1` [Example 34, 5-Bromo-N-[2-(4-phenoxy-phenyl)-ethyl]-6-piperazin-1-yl-nicotinamide] belongs 0.009 µM. Same read-out and setting: the figure for `CN1CCN(c2ccc(C(=O)NCCC3CCCCC3)cn2)CC1` [Example 54, N-(2-Cyclohexyl-ethyl)-6-(4-methyl-piperazin-1-yl)-nicotinamide] is 0.012 µM; for `CN1CCN(c2ccc(C(=O)NCC3CCCCC3)cn2)CC1` [Example 55, N-Cyclohexylmethyl-6-(4-methyl-piperazin-1-yl)-nicotinamide] it is 0.062 µM.

(Values after patent publication US8008305B2, “TAAR1 ligands” (Hoffmann-La Roche Inc., priority 2007, dated 2011).)
